US20220202897A1, “USE OF CYCLO(HIS-PRO) (CHP) FOR PREVENTING, AMELIORATING, OR TREATING FIBROSIS” (NOVMETAPHARMA CO., LTD., priority 2019, published 2022)

Columns and labels:
[1] = system: animal model of cardiac fibrosis; test: Fibrosis marker gene expression (real-time PCR) in heart tissue of a high-fat-diet animal model of cardiac fibrosis; assay type: in vivo, C57BL/6 mice; conditions: high-fat diet mice; CHP 5 and 35 mg/kg orally once a day for 16 weeks; corrected by β-actin; no further decrease with concentration; FIG. 10
Experimental: (§1) For liver fibrosis experiments in animals, 12-week-old C57BL/6 mice fed a high-fat diet containing 60% fat for 6 weeks were purchased from Jackson, USA, and Research diets D12492, a 60% fat-containing high-fat dietary feed purchased from Saeron Bio, were ingested for 17 weeks. Mice were bred to allow free access to feed and water in an environment of 24±3° C. C57BL/6 mice fed a high-fat diet for 6 weeks were acclimatized to the breeding environment for 1 week, and their weights were measured and evenly divided into 3 groups as shown in Table 1. CHP was orally administered to each group at a concentration of 5 mg/kg or 35 mg/kg once a day for 16 weeks, and the same amount of distilled water was orally administered to the control group in the same manner.
For cardiac fibrosis experiments in animals, an animal model of cardiac fibrosis was established in the same manner as in Example 4-1.
Isoflurane required for anesthesia and dissection of mice was purchased from Hana Pharmaceutical, and Vetequip's RC2 Rodent Circuit Controller Anesthesia System was prepared. Phosphate buffered saline (PBS) was purchased from Hyclone. To isolate the mouse heart tissue, the mice were anesthetized by respiratory anesthesia with 3-3.5% isoflurane. After blood was drawn from the heart of the anesthetized mice, the heart tissue was immediately excised, 50 mg of the heart was cut out, and RNA extraction and gene expression analysis were performed in the same manner as in Example 6-2. The expression value of each gene was corrected by dividing by the expression value of (β-actin, a housekeeping gene.
Statistical significance was analyzed using one-way ANOVA statistical analysis, and the Dunnett post hoc test was used to compare the significance with the HFD control group (*p<0.05, **p<0.01, ****p<0.0001).

[2] = system: HS68 skin fibroblast-derived cell line; test: Fibronectin protein expression (Western blot) in a human-derived skin cell fibrosis model; assay type: cell-based; conditions: HS68 cells; TGFβ 2 ng/ml with CHP 500 ng/ml; 48 hours; p<0.05 vs TGFβ-treated control; FIG. 9
Experimental: (§2) DMEM medium and FBS were purchased from Hyclone for culturing the HS68 skin fibroblast-derived cell line, and TGFβ for inducing fibrosis was purchased from R&D Systems. The cells were cultured in a DMEM medium supplemented with 10% FBS in a 5% CO2 incubator at 37° C., treated with TGFβ at a concentration of 2 ng/ml and treated with CHP at 0, 62.5, 125, 250, or 500 ng/ml, and cells were harvested at 48 hours of treatment.
(§3) Western blotting was performed in the same manner as in Example 3-2 to analyze the expression of fibronectin protein, a fibrotic protein. Statistical significance was analyzed using Student's t-test statistical method with the control (#p<0.05 (negative control group: TGFβ-treated control group), *p<0.05 (TGFβ-treated control group: CHP 500 ng/ml-treated group)).

L-132 lung cell line = test: Fibronectin protein expression (Western blot) in a human-derived lung cell fibrosis model; assay type: cell-based; conditions: L-132 cells; TGFβ 2 ng/ml with CHP 125 ng/ml; 48 hours; p<0.01 vs TGFβ-treated control; FIG. 7
Experimental: as §2, with “MEM” for “DMEM”, “L-132 lung” for “HS68 skin fibroblast-derived”, “62.5,” for “62.5, 125, 250,”, “125” for “500”
as §3, with “**p<0.01” for “*p<0.05”, “125” for “500”

[3] = system: animal model of fat fibrosis; test: Fibrosis marker gene expression (real-time PCR) in epididymal adipose tissue of a high-fat-diet animal model of fat fibrosis; assay type: in vivo, C57BL/6 mice; conditions: high-fat diet mice; CHP 5 and 35 mg/kg orally once a day for 16 weeks; corrected by GAPDH; FIG. 11
Experimental: as §1
For fat fibrosis experiments in animals, an animal model of fat fibrosis was established in the same manner as in Example 4-1.
Isoflurane required for anesthesia and dissection of mice was purchased from Hana Pharmaceutical, and Vetequip's RC2 Rodent Circuit Controller Anesthesia System was prepared. Phosphate buffered saline (PBS) was purchased from Hyclone. To isolate the mouse adipose tissue, the mice were anesthetized by respiratory anesthesia with 3-3.5% isoflurane. After blood was drawn from the heart of the anesthetized mice, the epididymal adipose tissue (EAT) was immediately excised, 100 mg of the fat was cut out, and RNA extraction and gene expression analysis were performed in the same manner as in Example 6-2. The expression value of each gene was corrected by dividing by the expression value of GAPDH, a housekeeping gene.
Statistical significance was analyzed using one-way ANOVA statistical analysis, and the Dunnett post hoc test was used to compare the significance with the control group (*p<0.05, **p<0.01).

[4] = system: animal model of liver fibrosis; test: Fibronectin protein expression (Western blot) in liver tissue of a high-fat-diet animal model of liver fibrosis; assay type: in vivo, C57BL/6 mice; conditions: 60% fat high-fat diet mice; CHP 5 or 35 mg/kg orally once a day for 16 weeks; vs HFD control; effect stronger according to the concentration; FIG. 6
Experimental: as §1
Isoflurane required for anesthesia and dissection of mice was purchased from Hana Pharmaceutical, and Vetequip's RC2 Rodent Circuit Controller Anesthesia System was prepared. Phosphate buffered saline (PBS) was purchased from Hyclone. To isolate the mouse liver tissue, the mice were anesthetized by respiratory anesthesia with 3-3.5% isoflurane. After blood was drawn from the heart of anesthetized mice, the liver tissue was immediately excised and washed with PBS. […] Statistical significance was analyzed using the Student's t-test statistical method with HFD control group (*p<0.05, **p<0.01).

[5] = system: human-derived proximal tubular epithelial cells; test: Western blot of E-cadherin, fibronectin and pSTAT3 proteins in the human-derived proximal tubular epithelial cell fibrosis model; assay type: cell-based; conditions: TGFβ 2 ng/ml, CHP 4, 20 and 100 μg/ml, FIG. 3
Text: Under the same conditions as in Example 1-2, the expression levels of proteins of E-cadherin, a junction marker, fibronectin, a fibrosis marker, and pSTAT3, a fibrosis transcription factor, after CHP administration were checked by Western blot.

[6] = system: human-derived proximal tubular epithelial cells; test: Cytological morphology after CHP treatment in a human-derived proximal tubular epithelial cell fibrosis model (TGFβ-induced); assay type: cell-based; conditions: recombinant TGFβ 2 ng/ml; CHP 4, 20 and 100 μg/ml; FIG. 2
[7] = system: animal model of pulmonary fibrosis; test: TGFβ and Collagen 3 gene expression (real-time PCR) in lung tissue of a high-fat-diet animal model of pulmonary fibrosis; assay type: in vivo, C57BL/6 mice; conditions: high-fat diet mice; CHP 5 and 35 mg/kg orally once a day for 16 weeks; corrected by GAPDH; FIG. 8
Huh7 liver cell line = test: Fibronectin protein expression (Western blot) in a human-derived hepatocyte fibrosis model; assay type: cell-based; conditions: Huh7 cells; TGFβ 2 ng/ml with CHP 250 ng/ml; 48 hours; corrected by GAPDH; FIG. 5
Experimental: as §2, with “Huh7 liver” for “HS68 skin fibroblast-derived”, “125,” for “125, 250,”, “250” for “500”
RIPA lysis buffer and Halt™ protease and phosphatase inhibitor cocktails was purchased from Thermo to analyze the expression of fibronectin protein, a fibrotic protein, and for protein quantification, BCA protein quantification kit was purchased from Thermo. […] The supernatant was collected, and the protein concentration was measured by BCA quantitation, and the protein was separated from the same amount of samples using the Bolt™ protein gel electrophoresis system, and transferred to a nitrocellulose membrane. […] After washing 3 times for 10 minutes with TBST, the expression level was measured by reacting with ECL. The size of the appearing band was quantified using the ImageJ program and corrected by dividing the fibronectin band size value by the GAPDH band size value. Statistical significance was analyzed using Student's t-test statistical method with the control group. #p<0.05 (negative control group: TGFβ treated control group).

[8] = system: human-derived glomerular endothelial cells; test: Cytological morphology after CHP treatment in a human-derived glomerular endothelial cell fibrosis model (rTGFβ-induced); assay type: cell-based; conditions: rTGFβ 2 ng/ml; CHP 40 and 100 μg/ml; FIG. 4

Compound: O=C1N[C@@H](Cc2cnc[nH]2)C(=O)N2CCC[C@@H]12 [CHP, Cyclo-HisPro]
- expression of Collagen 1 gene in heart [1]: significantly reduced
- expression of Collagen 3 gene in heart [1]: significantly reduced
- expression of Collagen 4 gene in heart [1]: significantly reduced
- expression of Fibronectin gene in heart [1]: significantly reduced
- expression of TGFβ gene in heart [1]: significantly reduced
- expression level of fibronectin protein [2]: significantly decreased
- expression level of fibronectin protein (L-132 lung cell line): significantly decreased
- expression of CTGF gene in fat (epididymal adipose tissue) [3]: markedly reduced
- expression of Collagen 3 gene in fat (epididymal adipose tissue) [3]: markedly reduced
- expression of Fibronectin gene in fat (epididymal adipose tissue) [3]: markedly reduced
- expression of TGFβ gene in fat (epididymal adipose tissue) [3]: markedly reduced
- expression level of fibronectin protein in liver tissue [4]: significantly decreased
- protein expression of E-cadherin (junction marker) [5]: restored
- protein expression of fibronectin (fibrosis marker) [5]: decreased
- protein expression of pSTAT3 (fibrosis transcription factor) [5]: decreased
- cytomorphological fibrosis (cytoskeletal remodeling and morphological changes) [6]: fibrosis was improved
- expression of Collagen 3 gene in lung [7]: decreased more significantly according to the CHP administration concentration
- expression of TGFβ gene in lung [7]: decreased more significantly according to the CHP administration concentration
- expression level of fibronectin protein (Huh7 liver cell line): showed a tendency to decrease
- cytomorphological fibrosis (cytoskeletal remodeling and morphological changes) [8]: fibrosis was improved
